Tests used:
streptavidin [1] = target: T1, streptavidin (Streptomyces avidinii, UniProt P22629); test: Ligand array probed by fluorescently labelled streptavidin; assay type: binding; settings: FIG. 10
Text: To increase the coupling yield, each coupling step was repeated two times. Same procedure was used in all amide bond formation reactions. After a capping step using 5% acetic anhydride/2% DIPEA, Fmoc was deprotected by immersing the glass slide in piperidine solution (DMF:ethanol 1:1). All amino groups not in the spotted area were acetylated in the first capping step. Therefore, no amide bond formation would be possible in these area in the following synthesis. The array was then probed by fluorescently labelled streptavidin or CypA (FIGS. 10 and 11). […] At this screening condition, the protein cannot distinguish between pM and low nM binders, while it can distinguish these two strong binders from the weaker µM binder iminobiotin.

streptavidin [2] = target: T1, streptavidin; settings: order of magnitude only; cited from earlier work
calcineurin = test: Array incubated with fluorescently labelled calcineurin; assay type: binding; settings: FIG. 13
Procedure: In order to probe protein-peptide interactions, a peptide was synthesized on the amphiphilic surface. The known calcineurin-binding peptide PVIVIT (SEQ ID NO: 13) and CsA1-COOH were synthesized on the surface. The glass slide was then incubated with fluorescently labelled calcineurin. […] Therefore, the on-demand peptide array synthesis technology can be used to investigate specific protein-peptide interaction.

cyclophilin A (CypA) = cyclophilin A (CypA) (Homo sapiens, UniProt P62937); settings: array probed by fluorescently labelled CypA, FIG. 11
L929 cells = test: Adhesion of L929 cells to peptides synthesized as array; assay type: cell-based; settings: array without removing the lipophilic group, FIG. 16
Text: There were synthesized cell adhesive peptide RGDSP (SEQ ID NO: 180) and its mutant GGDSP (SEQ ID NO: 179) as array and investigated their effects on the adhesion to L929 cells. As the chitosan hydrogel coating provides a favorable surface for the adhesion of many types of cells, including L929 cells, the array has been synthesized without removing the lipophilic group. […] (FIG. 16) Therefore, the array technology can be used not only for protein-based high throughput screening, but also for developing novel biomaterials as well as cellular assays.

T1 sequence (P22629 25-183): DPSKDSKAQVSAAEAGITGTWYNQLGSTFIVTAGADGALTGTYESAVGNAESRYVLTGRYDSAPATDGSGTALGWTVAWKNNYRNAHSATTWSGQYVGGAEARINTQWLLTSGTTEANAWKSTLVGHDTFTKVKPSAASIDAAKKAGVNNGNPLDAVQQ
Chain of cyclophilin A (CypA) (P62937 whole entry, species assumed): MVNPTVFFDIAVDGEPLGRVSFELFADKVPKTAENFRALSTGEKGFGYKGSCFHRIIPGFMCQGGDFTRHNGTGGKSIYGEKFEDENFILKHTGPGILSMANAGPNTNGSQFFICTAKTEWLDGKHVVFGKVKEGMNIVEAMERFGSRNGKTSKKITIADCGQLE

| Compound | Kd values / dissociation constant to streptavidin (streptavidin [2]) | adhesion to L929 cells (L929 cells) | other results |
| --- | --- | --- | --- |
| N=C1N[C@H]2[C@H](CS[C@H]2CCCCC(=O)O)N1 [iminobiotin] | µM |  | fluorescent signal on spot (streptavidin [1]): much weaker than those of biotin and desthiobiotin |
| PVIVIT: known calcineurin-binding peptide PVIVIT |  |  | binding of calcineurin to spot (calcineurin): can bind specifically |
| O=C(O)CCCC[C@@H]1SC[C@@H]2NC(=O)N[C@@H]21 [Biotin, biotin] |  |  | binding of CypA to spot (cyclophilin A (CypA)): not |
| C[C@@H]1NC(=O)N[C@@H]1CCCCCC(=O)O [desthiobiotin] | low nM |  |  |
| GGDSP: mutant of cell adhesive peptide RGDSP |  | poor adhesion |  |
| RGDSP: cell adhesive peptide RGDSP |  | strong adhesion |  |
